Experimental data taken from BindingDB's records for patent US20250235456 (Iambic Therapeutics, 2025).

Tests used:
[1] = target: Cyclin-dependent kinase 1 (Homo sapiens, UniProt P06493); assay: CDK1/Cyclin B1 ADP-Glo Kinase Assay
Experimental: (§1) The purpose of CDK1/Cyclin Bi assay is to evaluate the inhibition (% inhibition and IC50 values) of small molecule inhibitors by using a Luminescent based ADP-Glo assay. CDK1/Cyclin B1 catalyzes the production of ADP from ATP. ADP-Glo assay monitors ADP producing biochemical reactions. ADP-Glo is performed in 2 steps upon completion of kinase reaction: a combined termination of kinase reaction and depletion of remaining ATP in the first step, and conversion of generated ADP to ATP and the newly produced ATP to light output using luciferase/luciferin reaction in the second step. The luminescent signal generated is proportional to the ADP concentration produced and is correlated with the kinase activity. CDK1/Cyclin B1 was purchased from Carna (Cat 04-102). […] The assay was initiated with the addition of ATP-containing substrate solution, following a 30-minute pre-incubation of enzyme and inhibitor at room temperature in the reaction mixture. The reaction was stopped after 90 minutes at room temperature by the addition of 10 μL of ADP-GLO Reagent. After a 90 minute incubation, 20 μL of Kinase Detection Reagent was added. Samples were incubated for 40 minutes, after which plate well luminescence was measured on a Envision microplate reader. The IC50 determinations were made from a plot of the fractional velocity as a function of inhibitor concentration fit to the 4 parameters IC50 equation.

[2] = target: Cyclin-dependent kinase 2/G1/S-specific cyclin-E1 (Homo sapiens, UniProt P24941); assay: CDK2/Cyclin E1 ADP-Glo Kinase Assay
Experimental: as §1, with “of CDK2/Cyclin El” for “of CDK1/Cyclin Bi”, “assay. CDK2/Cyclin El full length” for “assay. CDK1/Cyclin B1”, “activity. CDK2/Cyclin E1” for “activity. CDK1/Cyclin B1”, “from Eurofins” for “from Carna”, “(Cat 14-475M).” for “(Cat 04-102).”, “20 uL” for “20 μL”

[3] = target: Cyclin-dependent kinase 6/G1/S-specific cyclin-D3 (Homo sapiens, UniProt Q00534); assay: CDK6/Cyclin D3 ADP-Glo Kinase Assay
Experimental: as §1, with “of the CDK6/Cyclin D3” for “of CDK1/Cyclin Bi”, “values) in the presence” for “values)”, “assay. CDK6/Cyclin D3” for “assay. CDK1/Cyclin B1”, “activity. CDK6/Cychin D3” for “activity. CDK1/Cyclin B1”, “from Carna.” for “from Carna (Cat 04-102).”, “a 90-minute” for “a 90 minute”

Chain of Cyclin-dependent kinase 1 (P06493 whole entry): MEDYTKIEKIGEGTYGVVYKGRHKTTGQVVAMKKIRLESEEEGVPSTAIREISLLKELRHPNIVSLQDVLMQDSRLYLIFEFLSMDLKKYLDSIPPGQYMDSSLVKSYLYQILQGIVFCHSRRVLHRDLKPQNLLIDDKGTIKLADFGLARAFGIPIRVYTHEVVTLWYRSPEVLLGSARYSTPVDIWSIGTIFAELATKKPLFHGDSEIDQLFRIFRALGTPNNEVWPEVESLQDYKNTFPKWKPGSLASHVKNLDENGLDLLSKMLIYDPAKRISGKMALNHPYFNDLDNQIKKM
Chain of Cyclin-dependent kinase 6/G1/S-specific cyclin-D3 (Q00534 whole entry): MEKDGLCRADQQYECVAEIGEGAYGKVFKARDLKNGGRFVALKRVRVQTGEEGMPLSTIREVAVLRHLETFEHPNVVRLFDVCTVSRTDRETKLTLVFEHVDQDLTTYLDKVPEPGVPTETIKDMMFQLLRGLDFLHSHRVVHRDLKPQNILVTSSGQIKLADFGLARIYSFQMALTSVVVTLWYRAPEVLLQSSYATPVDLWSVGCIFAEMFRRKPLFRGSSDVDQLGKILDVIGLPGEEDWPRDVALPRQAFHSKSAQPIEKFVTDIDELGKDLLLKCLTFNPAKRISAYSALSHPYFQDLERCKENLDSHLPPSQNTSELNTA
Chain of Cyclin-dependent kinase 6/G1/S-specific cyclin-D3 (P30281 whole entry, further chain): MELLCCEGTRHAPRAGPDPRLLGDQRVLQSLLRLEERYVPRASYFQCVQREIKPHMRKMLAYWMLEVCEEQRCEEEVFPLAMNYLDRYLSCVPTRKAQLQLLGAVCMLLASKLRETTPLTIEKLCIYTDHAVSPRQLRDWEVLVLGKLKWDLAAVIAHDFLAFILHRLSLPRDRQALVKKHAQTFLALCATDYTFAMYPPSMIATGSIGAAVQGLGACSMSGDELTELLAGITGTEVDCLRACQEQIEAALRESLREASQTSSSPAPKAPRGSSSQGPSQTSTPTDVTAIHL

| Structure (SMILES) | IC50 [1] | IC50 [2] | IC50 [3] |
| --- | --- | --- | --- |
| Cc1cc2cnc(NC3CC4CC3CN4C)nc2c(N2CCC3(C2)CC3(F)F)n1 (stereo unspecified) [US20250235456, Compound 43] | > 2000 nM | in the range around 1250 nM | 200 to 500 nM |
| Cc1cc2cnc(NC3CCN(S(C)(=O)=O)CC3)nc2c(N2CC3(CNCC3C(F)F)C2)n1 (stereo unspecified) [US20250235456, Compound 100] | < 200 nM | < 200 nM | < 200 nM |
| Cc1cc2cnc(NC3CCN(S(=O)(=O)CCC4(C)CC4)CC3)nc2c(N2CC(F)(F)C3(CNC3)C2)n1 [US20250235456, Compound 67] | 200 to 500 nM | < 200 nM | 200 to 500 nM |
| Cc1cc2cnc(NC3CCN(S(C)(=O)=O)CC3)nc2c(N2CC3(CN(C)CC3(F)F)C2)n1 [US20250235456, Compound 101] | 200 to 500 nM | < 200 nM | < 200 nM |
| Cc1cc2cnc(NC3CCN(S(=O)(=O)c4ccn(C)n4)CC3)nc2c(N2CC(F)(F)C3(CNC3)C2)n1 [US20250235456, Compound 94] |  | < 200 nM |  |
| Cc1cc2cnc(N[C@@H]3CCOC[C@H]3O)nc2c(N2CC(O)(C3CC3)C2)n1 [US20250235456, Compound 86] | > 2000 nM | in the range around 350 nM | 200 to 500 nM |
| Cc1cc2cnc(NC3CCN(S(C)(=O)=O)CC3)nc2c(C2CC(C)(CO)C2)n1 (stereo unspecified) [US20250235456, Compound 69] | < 200 nM |  |  |
| CN1Cc2ccc(Nc3ncc4ccnc(N5CCC6(C5)CC6(F)F)c4n3)cc2C1 (stereo unspecified) [US20250235456, Compound 22] | < 200 nM | < 200 nM | < 200 nM |
| Cc1cc2cnc(NC3CCN(S(=O)(=O)C4(C)CC4)CC3)nc2c(N2CCC3(CN(C)C3)C2)n1 [US20250235456, Compound 59] |  | < 200 nM | < 200 nM |
| Cc1cc2cnc(Nc3cnn(CC4(N(C)C)CC4)c3)nc2c(N2CCC3(C2)CC3(F)F)n1 (stereo unspecified) [US20250235456, Compound 36] | > 2000 nM | in the range around 350 nM |  |
| Cc1cc2cnc(NC3CCN(S(C)(=O)=O)CC3)nc2c(N2CC3(CNCC3(F)F)C2)n1 [US20250235456, Compound 85] | < 200 nM | < 200 nM | < 200 nM |
| Cc1cc2cnc(NC3CCN(S(=O)(=O)C4CC4)CC3)nc2c(N2CC(OC3CC3)C2)n1 [US20250235456, Compound 57] | 200 to 500 nM | < 200 nM | < 200 nM |
| CS(=O)(=O)N1CCC(Nc2ncc3cc(C(F)F)nc(N4CC5(CCNCC5(F)F)C4)c3n2)CC1 [US20250235456, Compound 90] |  | < 200 nM | < 200 nM |
| Cc1cc2cnc(NC3CCN(S(=O)(=O)C4CC4)CC3)nc2c(N2CC3(CC(O)C3)C2)n1 [US20250235456, Compound 66] |  | < 200 nM | < 200 nM |
| Cc1cc2cnc(NC3CCN(S(=O)(=O)C4CC4)CC3)nc2c(N2CC3(C2)CN(C2CC2)C3)n1 [US20250235456, Compound 48] |  | < 200 nM | 200 to 500 nM |
